From publication PMC12483202, “Pharmacokinetic profile of oral firocoxib in the koala (Phascolarctos cinereus)” (PLOS One, 2025)

Assay: Single oral dose (5 mg/kg) pharmacokinetics of firocoxib in koalas, plasma HPLC, non-compartmental analysis;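 further: healthy adult koalas, three per sex, anaesthetised the day before dosing for cephalic vein catheterisation, with serial blood draws and firocoxib in plasma quantified by HPLC using fluorescence detection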
Conditions: for AUC(0-t): AUC0-t; for MRT inf: MRT0-inf; for k el: ke; for concentration at 1 h / concentration at 2 h / concentration at 4 h / concentration at 8 h: koala (Phascolarctos cinereus)
[1] = arithmetic mean, female koalas (n = 3), single oral 5 mg/kg
[2] = arithmetic mean, male koalas (n = 3), single oral 5 mg/kg
[3] = arithmetic mean, n = 6 koalas, single oral 5 mg/kg
[4] = both, plasma, po, 5 mg/kg, arithmetic mean, n = 6 koalas, single oral 5 mg/kg
[5] = both, plasma, po, 5 mg/kg, harmonic mean, n = 6 koalas, single oral 5 mg/kg
[6] = both, plasma, po, 5 mg/kg, median (range), n = 6 koalas, single oral 5 mg/kg
[7] = female, plasma, po, 5 mg/kg, Firocoxib plasma concentration, K4 female, single oral 5 mg/kg
[8] = female, plasma, po, 5 mg/kg, Firocoxib plasma concentration, K5 female, single oral 5 mg/kg
[9] = female, plasma, po, 5 mg/kg, Firocoxib plasma concentration, K6 female, single oral 5 mg/kg
[10] = female, koala, plasma, po, 5 mg/kg, Firocoxib plasma concentration, K4 female, single oral 5 mg/kg
[11] = female, koala, plasma, po, 5 mg/kg, Firocoxib plasma concentration, K5 female, single oral 5 mg/kg
[12] = female, koala, plasma, po, 5 mg/kg, Firocoxib plasma concentration, K6 female, single oral 5 mg/kg
[13] = female, plasma, po, 5 mg/kg, K4 female, single oral 5 mg/kg
[14] = female, plasma, po, 5 mg/kg, K5 female, single oral 5 mg/kg
[15] = female, plasma, po, 5 mg/kg, K6 female, single oral 5 mg/kg
[16] = female, plasma, po, 5 mg/kg, arithmetic mean, female koalas (n = 3), single oral 5 mg/kg
[17] = female, plasma, po, 5 mg/kg, harmonic mean, female koalas (n = 3), single oral 5 mg/kg

From the text: Six mature koalas (3 males, 3 females) with median (range) body weights and ages of 9.2 kg, (7.5 to 9.7 kg) and 4.8 years (4.3 to 9.1 years), respectively, were recruited from the Taronga Zoo colony (Mosman, NSW, Australia). These koalas were clinically normal based on regular physical examinations, haematological and biochemical analyte values. During the study, koalas were housed singly and supplied with various Eucalyptus spp. foliage and water ad-libitum. […] No animals were sacrificed; the animals were returned to the colony immediately after firocoxib administration and blood sampling. In order to minimise stress, intravenous catheterisation for sequential blood sampling was performed under general anaesthesia.
The day prior to drug administration and blood collection, the koalas were anaesthetised with alfaxalone (Alfaxan, Jurox, Pty Ltd, Rutherford, NSW, Australia) at 3 mg/kg administered intramuscularly (i.m.) and maintained under anaesthesia on isoflurane in 100% oxygen via a face mask for placement of a 20 gauge, 1 ¼ inch intravenous catheter into the cephalic vein. A short T-connector extension set (Codan, Santa Ana, CA, USA) and cap was attached to the catheter and flushed with saline. The extension tube, cap and catheter were secured with tape and bandage, for serial blood collection. Blood (5 mL) was collected at the time of anaesthesia in a lithium heparin tube to establish a baseline (t = 0 h).
Firocoxib was administered as a single oral dose of 5 mg/kg as crushed tablets made into a paste with Vetafarm Koala Crittacare (Wagga Wagga, NSW) and water.
Samples were centrifuged at 1500 x g for 10 minutes, within 1 h of collection; the plasma was immediately stored at –80 °C and protected from light until drug quantification. […] Clinical observations for the presence of adverse effects in the animals treated included measurement of vital signs, appetite, body weight, faecal consistency and overall behaviour and mobility.
Quantification of firocoxib and visualisation of metabolites in plasma was achieved by HPLC with fluorescence detection modified from a published method [12]. The HPLC system consisted of a Shimadzu LC-20AT solvent delivery unit, DGU-20A degasser, a SIL-20A HT auto injector, an SPD-20A UV detector and RF-10A XL fluorescence detector (Shimadzu, Rydalmere, NSW, Australia) and column oven (CTO-20A). […] Chromatographic separation was performed with a Supelco, Discovery C18, (25 cm x 4.6 mm, 5 µm) column (Merck KGaA, Darmstadt, Germany) with a 1-mm Opti-guard C18 pre-column (Choice Analytical, Thornleigh, NSW, Australia) at ambient temperature. […] Fluorescence detection excitation and emission wavelengths were 280 nm and 375 nm, respectively.
For sample preparation 200 μL of each of the following: plasma samples collected from koalas administered firocoxib, standards prepared for the standard curves and the QC samples; were extracted twice by mixing with 800 μL of ethyl acetate. The extracted organic portion (1.6 mL) was dried under vacuum in a Speed Vac Concentrator (Thermo Scientific, MA, USA) at 35 °C for 1 h, reconstituted with 100 μL of acetonitrile, and finally 10 μL of the reconstituted sample was injected into the HPLC system.
The concentration of each QC sample was repeated three times with the accuracy and precision calculated on each of the triplicates. The mean accuracy ± standard deviation (SD) were calculated using the formula [13]:
Firocoxib plasma concentrations from the initial oral administration underwent non-compartmental analysis. The peak concentration (Cmax) and the time reached (Tmax) were obtained directly from the measured concentrations. The elimination half-life (t1/2) was determined by ln2/ke where ke is the elimination rate constant which is the inverse slope of the elimination or terminal part of the semi-log curve.

- AUC 0-t/AUC0-inf (K1 male, single oral 5 mg/kg): 0.72
- AUMC 0-inf (K1 male, single oral 5 mg/kg): 56998 ng/mL*h^2
- Cl/F (K1 male, single oral 5 mg/kg): 19.0 L/h
- ka (absorption constant) (K1 male, single oral 5 mg/kg): 0.11 h⁻¹
- AUC 0-t/AUC0-inf (K2 male, single oral 5 mg/kg): 0.99
- AUMC 0-inf (K2 male, single oral 5 mg/kg): 11422 ng/mL*h^2
- Cl/F (K2 male, single oral 5 mg/kg): 30.5 L/h
- ka (absorption constant) (K2 male, single oral 5 mg/kg): 0.21 h⁻¹
- AUC 0-t/AUC0-inf (K3 male, single oral 5 mg/kg): 0.99
- AUMC 0-inf (K3 male, single oral 5 mg/kg): 13436.9 ng/mL*h^2
- Cl/F (K3 male, single oral 5 mg/kg): 24.6 L/h
- ka (absorption constant) (K3 male, single oral 5 mg/kg): 0.17 h⁻¹
- AUC 0-t/AUC0-inf (K4 female, single oral 5 mg/kg): 0.98
- AUMC 0-inf (K4 female, single oral 5 mg/kg): 8500.1 ng/mL*h^2
- Cl/F (K4 female, single oral 5 mg/kg): 38.5 L/h
- ka (absorption constant) (K4 female, single oral 5 mg/kg): 0.43 h⁻¹
- AUC 0-t/AUC0-inf (K5 female, single oral 5 mg/kg): 0.94
- AUMC 0-inf (K5 female, single oral 5 mg/kg): 11402.2 ng/mL*h^2
- Cl/F (K5 female, single oral 5 mg/kg): 49.2 L/h
- ka (absorption constant) (K5 female, single oral 5 mg/kg): 0.25 h⁻¹
- AUC 0-t/AUC0-inf (K6 female, single oral 5 mg/kg): 0.83
- AUMC 0-inf (K6 female, single oral 5 mg/kg): 14183.2 ng/mL*h^2
- Cl/F (K6 female, single oral 5 mg/kg): 87.5 L/h
- ka (absorption constant) (K6 female, single oral 5 mg/kg): 0.25 h⁻¹
- AUC 0-t/AUC0-inf [1]: 0.92
- AUMC 0-inf [1]: 11361.8 ng/mL*h^2
- Cl/F [1]: 58.4 L/h
- ka [1]: 0.28 h⁻¹
- AUC 0-t/AUC0-inf [2]: 0.90
- AUMC 0-inf [2]: 27285.7 ng/mL*h^2
- Cl/F [2]: 24.7 L/h
- ka [2]: 0.19 h⁻¹
- AUMC [3]: 19323.8 ng/mL*h ^ 2
- Cl/F [3]: 41.6 L/h
- ka [3]: 0.24 h⁻¹
- AUC(0-inf) (both, plasma, po, 5 mg/kg, AUC0-inf, arithmetic mean, n = 6 koalas, single oral 5 mg/kg): 1480 ng·h/mL
- AUC(0-inf) (both, plasma, po, 5 mg/kg, AUC0-inf, harmonic mean, n = 6 koalas, single oral 5 mg/kg): 1080 ng·h/mL
- AUC(0-inf) (both, plasma, po, 5 mg/kg, AUC0-inf, median (range), n = 6 koalas, single oral 5 mg/kg): 1260 ng·h/mL
- AUC(0-t) [4]: 1310 ng·h/mL
- AUC(0-t) [5]: 974 ng·h/mL
- AUC(0-t) [6]: 1240 ng·h/mL
- Cmax [4]: 141 ng/mL
- Cmax [5]: 79.2 ng/mL
- Cmax [6]: 140 ng/mL
- MRT inf [4]: 12 h
- MRT inf [5]: 10.7 h
- MRT inf [6]: 12.2 h
- Tmax [4]: 4.33 h
- Tmax [5]: 3.69 h
- Tmax [6]: 4 h
- Tmax (both, plasma, po, 5 mg/kg, median value, both sexes, koala (6), PO 5 mg/kg): 4 h
- Vd/F (both, plasma, po, 5 mg/kg, Vss/F, arithmetic mean, n = 6 koalas, single oral 5 mg/kg): 674 L
- Vd/F (both, plasma, po, 5 mg/kg, Vss/F, harmonic mean, n = 6 koalas, single oral 5 mg/kg): 332 L
- Vd/F (both, plasma, po, 5 mg/kg, Vss/F, median (range), n = 6 koalas, single oral 5 mg/kg): 811 L
- Vd/F (both, plasma, po, 5 mg/kg, Vz/F, arithmetic mean, n = 6 koalas, single oral 5 mg/kg): 582 L
- Vd/F (both, plasma, po, 5 mg/kg, Vz/F, harmonic mean, n = 6 koalas, single oral 5 mg/kg): 230 L
- Vd/F (both, plasma, po, 5 mg/kg, Vz/F, median (range), n = 6 koalas, single oral 5 mg/kg): 240 L
- k el [4]: 3.89e-05 s⁻¹
- k el [5]: 2.78e-05 s⁻¹
- k el [6]: 4.17e-05 s⁻¹
- half-life (both, plasma, po, 5 mg/kg, t1/2, arithmetic mean, n = 6 koalas, single oral 5 mg/kg): 7 h
- half-life (both, plasma, po, 5 mg/kg, t1/2, harmonic mean, n = 6 koalas, single oral 5 mg/kg): 5.01 h
- half-life (both, plasma, po, 5 mg/kg, t1/2, median (range), n = 6 koalas, single oral 5 mg/kg): 5.46 h
- MRT inf (female, in vivo, po, 5 mg/kg, K6 female, single oral 5 mg/kg): 26.4 h
- concentration at 1 h [7]: 8.27 ng/mL
- concentration at 2 h [7]: 24.3 ng/mL
- concentration at 4 h [7]: 89.3 ng/mL
- concentration at 8 h [7]: 74.7 ng/mL
- concentration at 1 h [8]: 28.6 ng/mL
- concentration at 2 h [8]: 61.9 ng/mL
- concentration at 4 h [8]: 51.8 ng/mL
- concentration at 8 h [8]: 45.8 ng/mL
- concentration at 1 h [9]: 7.89 ng/mL
- concentration at 2 h [9]: 12.3 ng/mL
- concentration at 4 h [9]: 28.9 ng/mL
- concentration at 8 h [9]: 17.5 ng/mL
- concentration at 0.25 h [10]: 0.78 ng/mL
- concentration at 0.5 h [10]: 1.23 ng/mL
- concentration at 12 h [10]: 40.2 ng/mL
- concentration at 24 h [10]: 3.7 ng/mL
- concentration at 0.25 h [11]: 3.74 ng/mL
- concentration at 0.5 h [11]: 5.88 ng/mL
- concentration at 12 h [11]: 23.3 ng/mL
- concentration at 24 h [11]: 12.8 ng/mL
- concentration at 36 h [11]: 3.83 ng/mL
- concentration at 0.25 h [12]: 3.58 ng/mL
- concentration at 0.5 h [12]: 10.6 ng/mL
- concentration at 12 h [12]: 13.2 ng/mL
- concentration at 24 h [12]: 3.78 ng/mL
- concentration at 36 h [12]: 7.02 ng/mL
- concentration at 48 h (female, koala, plasma, po, 5 mg/kg, Firocoxib plasma concentration, K6 female, 48 h, single oral 5 mg/kg): 3.83 ng/mL
- AUC(0-inf) (female, plasma, po, 5 mg/kg, AUC0-inf, K4 female, single oral 5 mg/kg): 973 ng·h/mL
- AUC(0-inf) (female, plasma, po, 5 mg/kg, AUC0-inf, K5 female, single oral 5 mg/kg): 868 ng·h/mL
- AUC(0-inf) (female, plasma, po, 5 mg/kg, AUC0-inf, K6 female, single oral 5 mg/kg): 537 ng·h/mL
- AUC(0-inf) (female, plasma, po, 5 mg/kg, AUC 0-inf, arithmetic mean, female koalas (n = 3), single oral 5 mg/kg): 793 ng·h/mL
- AUC(0-inf) (female, plasma, po, 5 mg/kg, AUC 0-inf, harmonic mean, female koalas (n = 3), single oral 5 mg/kg): 742 ng·h/mL
- AUC(0-t) [13]: 954 ng·h/mL
- AUC(0-t) [14]: 820 ng·h/mL
- AUC(0-t) [15]: 444 ng·h/mL
- AUC(0-t) [16]: 739 ng·h/mL
- AUC(0-t) [17]: 664 ng·h/mL
- Cmax [13]: 89.3 ng/mL
- Cmax [14]: 61.9 ng/mL
- Cmax [15]: 28.9 ng/mL
- Cmax [16]: 60.3 ng/mL
- Cmax [17]: 48.4 ng/mL
SMILES: CC1(C)OC(=O)C(OCC2CC2)=C1c1ccc(S(C)(=O)=O)cc1 [firocoxib]
